≈ marks a conversion by molar mass, not a printed value.
Key:
Assay type in all cases: functional
Pseudomonas aeruginosa [1] = assay: In vitro antibacterial effect against Pseudomonas aeruginosa 28 by using gradient plate test
Escherichia coli [2] = assay: In vitro antibacterial effect against E. c. Vogel by using gradient plate test
[3] = tested on: Mycobacterium tuberculosis; assay: In vitro antibacterial effect against Mycobacterium tuberculosis H37Rv by using gradient plate test
Staphylococcus aureus [4] = assay: In vitro antibacterial effect against Staphylococcus aureus UC-76 by using gradient plate test
Mus musculus [5] = assay: Parenteral antimalarial effect against Plasmodium berghei in mice (Mus musculus) at a dose of 160 mg/kg subcutaneously 10/10; conditions: route subcutaneous
Mus musculus [6] = assay: Parenteral antimalarial effect against Plasmodium berghei in mice (Mus musculus) at a dose of 640 mg/kg subcutaneously; Number of mice (Mus musculus) surviving at 60 days post infection and cured 10/10; conditions: route subcutaneous
Mus musculus [7] = assay: Parenteral antimalarial effect against Plasmodium berghei in mice (Mus musculus) at a dose of 10sc mg/kg
Mus musculus [8] = assay: Parenteral antimalarial effect against Plasmodium berghei in mice (Mus musculus) at a dose of 320 mg/kg subcutaneously; 5/5; conditions: route subcutaneous
Shigella sonnei [9] = assay: In vitro antibacterial effect against Shigella sonnei C-10 by using gradient plate test
Mus musculus [10] = assay: Parenteral antimalarial effect against Plasmodium berghei in mice (Mus musculus) at a dose of 20sc mg/kg
Staphylococcus aureus [11] = assay: In vitro antibacterial effect against Staphylococcus aureus S18713 by using gradient plate test
Enterococcus faecalis [12] = assay: In vitro antibacterial effect against Streptococcus faecalis MGH-2
Escherichia coli [13] = assay: In vitro antibacterial effect against Escherichia coli Vogel by using gradient plate test
Mus musculus [14] = assay: Parenteral antimalarial effect against Plasmodium berghei in mice (Mus musculus) at a dose of 40 mg/kg subcutaneously; conditions: route subcutaneous
Mus musculus [15] = assay: Parenteral antimalarial effect against Plasmodium berghei in mice (Mus musculus) at a dose of 160 subcutaneously mg/kg
Mus musculus [16] = assay: Parenteral antimalarial effect against Plasmodium berghei in mice (Mus musculus) at a dose of 640 subcutaneously mg/kg
Mus musculus [17] = assay: Parenteral antimalarial effect against Plasmodium berghei in mice (Mus musculus) at a dose of 80 mg/kg subcutaneously; conditions: route subcutaneous
Mus musculus [18] = assay: Parenteral antimalarial effect against Plasmodium berghei in mice (Mus musculus) at a dose of 320 subcutaneous mg/kg
Mus musculus [19] = assay: Parenteral antimalarial effect against Plasmodium berghei in mice (Mus musculus) at a dose of 20 mg/kg subcutaneously; Number of mice (Mus musculus) surviving at 60 days post infection and cured 8/15; conditions: route subcutaneous
Mus musculus [20] = assay: Parenteral antimalarial effect against Plasmodium berghei in mice (Mus musculus) at a dose of 160 mg/kg subcutaneously; Number of mice (Mus musculus) surviving at 60 days post infection and cured 10/10; conditions: route subcutaneous
Mus musculus [21] = assay: Parenteral antimalarial effect against Plasmodium berghei in mice (Mus musculus) at a dose of 80 mg/kg subcutaneously; Number of mice (Mus musculus) surviving at 60 days post infection and cured 10/10; conditions: route subcutaneous
Pseudomonas aeruginosa [22] = assay: In vitro antibacterial effect against P.a 28 by using gradient plate test
Staphylococcus aureus [23] = assay: In vitro antibacterial effect against S. a. UC-76 by using gradient plate test
Staphylococcus aureus [24] = assay: In vitro antibacterial effect against S. a. S18713 by using gradient plate test
Shigella sonnei [25] = assay: In vitro antibacterial effect against S. s C-10 by using gradient plate test
Enterococcus faecalis [26] = assay: In vitro antibacterial effect against S. f MGH-2
Mus musculus [27] = assay: Parenteral antimalarial effect against Plasmodium berghei in mice (Mus musculus) at a dose of 160 mg/kg subcutaneously; Number of mice (Mus musculus) surviving at 60 days post infection and cured 8/10; conditions: route subcutaneous
Mus musculus [28] = assay: Parenteral antimalarial effect against Plasmodium berghei in mice (Mus musculus) at a dose of 320 subcutaneous mg/kg; Number of mice (Mus musculus) surviving at 60 days post infection and cured 5/5

Compound	MIC (Pseudomonas aeruginosa [1]) [µg/mL]	MIC (Escherichia coli [2]) [µg/mL]	MIC [3] [µg/mL]	MIC (Staphylococcus aureus [4]) [µg/mL]	MIC (Shigella sonnei [9]) [µg/mL]	MST (Mus musculus [10]) [days]	MIC (Staphylococcus aureus [11]) [µg/mL]	MIC (Enterococcus faecalis [12]) [µg/mL]	MST (Mus musculus [14]) [days]	MST (Mus musculus [15]) [days]	MST (Mus musculus [16]) [days]	further results
CN(Cc1ccc(Cl)c(Cl)c1)c1cnc2nc(N)nc(N)c2n1	> 25	> 25	10 (≈ 28.6 µM)	< 0.25	> 25	10.6	< 0.25	< 0.25				MST (Mus musculus [5]): 10 days; MST (Mus musculus [6]): 10 days; MST (Mus musculus [7]): 2.5 days; MST (Mus musculus [8]): 5 days
Nc1nc(N)c2nc(N3CCC(c4ccccc4)CC3)cnc2n1	> 25		10 (≈ 31.1 µM)	> 0.25	> 25		> 0.25	< 0.25	0.1	0.1	0.1	MIC (Escherichia coli [13]): > 25 µg/mL
COc1ccc2ccccc2c1CN(C)c1cnc2nc(N)nc(N)c2n1						0.2						MST (Mus musculus [17]): 0.2 days; MST (Mus musculus [18]): 0.2 days
Nc1nc(N)c2nc(N3CCc4ccccc4C3)cnc2n1									0.1	0.3	0.5	
CN(Cc1ccc(Cl)c(Cl)c1)c1ccc2nc(N)nc(N)c2c1												MST (Mus musculus [19]): 8 days; MST (Mus musculus [20]): 10 days; MST (Mus musculus [21]): 10 days; MST (Mus musculus [7]): 8.7 days
CN(Cc1ccccc1)c1cnc2nc(N)nc(N)c2n1	> 25	10 (≈ 35.5 µM)	10 (≈ 35.5 µM)	< 0.25	> 25		< 0.25	< 0.25	0.1	0.1	0.3	
CN(Cc1cc2ccccc2c2ccccc12)c1cnc2nc(N)nc(N)c2n1		> 25										MIC (Pseudomonas aeruginosa [22]): > 25 µg/mL; MIC (Staphylococcus aureus [23]): < 0.25 µg/mL; MIC (Staphylococcus aureus [24]): < 0.25 µg/mL; MIC (Shigella sonnei [25]): > 25 µg/mL; MIC (Enterococcus faecalis [26]): < 0.25 µg/mL
CN(Cc1ccc(F)cc1)c1cnc2nc(N)nc(N)c2n1	> 25	> 25	2.5 (≈ 8.35 µM)	< 0.25	> 25	8.5	< 0.25	< 0.25				MST (Mus musculus [27]): 8 days; MST (Mus musculus [6]): 10 days
CN(CCc1ccccc1)c1cnc2nc(N)nc(N)c2n1	> 25		> 25	< 0.25	> 25	0.1	< 0.25	< 0.25	0.1	0.7	3.9	MST (Mus musculus [17]): 0.1 days; MIC (Escherichia coli [13]): > 25 µg/mL; MST (Mus musculus [18]): 1.7 days
CN(Cc1c2ccccc2cc2ccccc12)c1cnc2nc(N)nc(N)c2n1						0.1						MST (Mus musculus [17]): 0.1 days; MST (Mus musculus [18]): 1.3 days
CN(Cc1cccc2ccccc12)c1cnc2nc(N)nc(N)c2n1	> 25		> 25	< 0.25	> 25	5	< 0.25	< 0.25				MIC (Escherichia coli [13]): > 25 µg/mL; MST (Mus musculus [20]): 10 days; MST (Mus musculus [28]): 5 days; MST (Mus musculus [6]): 10 days; MST (Mus musculus [7]): 4 days

Reference: ChEMBL document CHEMBL1121776, “Folate antagonists. 18. Synthesis and antimalarial effects of N6-(arylmethyl)-N6-methyl-2,4,6-pteridinetriamines and related N6,N6-disubstituted 2,4,6-pteridinetriamines” (1981)
